Source: patent US20230106032A1, “IMIDAZOTRIAZINES ACTING ON CANCER VIA INHIBITION OF CDK12” (Bayer Aktiengesellschaft, priority 2020, published 2023)

Key:
CDK2/CycE = target: T1, CDK2/CycE (Homo sapiens, UniProt P24941); test: CDK2/CycE kinase assay (TR-FRET, 2 mM ATP); assay type: biochemical; details: read-out: CDK2/CyclinE, 2 mM ATP (high ATP) IC50-[mol/l] (median)
T1 construct: purchased ProQinase GmbH (Freiburg, Germany); host or cells: insect cells (Sf9)
Text: CDK2/CycE-inhibitory activity of compounds of the present invention was quantified employing the CDK2/CycE TR-FRET assay as described in the following paragraphs.
Recombinant fusion proteins of GST and human CDK2 and of GST and human CycE, expressed in insect cells (Sf9) and purified by Glutathion-Sepharose affinity chromatography, were purchase from ProQinase GmbH (Freiburg, Germany). As substrate for the kinase reaction biotinylated peptide biotin-Ttds-YISPLKSPYKISEG (C-terminus in amid form) was used which can be purchased e.g. form the company JERINI peptide technologies (Berlin, Germany).
For the assay 50 nanoL of a 100 fold concentrated solution of the test compound in DMSO was pipetted into a black low volume 384 well microtiter plate or a black 1536 well microtiter plate (both Greiner Bio-One, Frickenhausen, Germany), 2 microL of a solution of CDK2/CycE in aqueous assay buffer [50 millimol/L Tris/HCl pH 8.0, 10 millimol/L MgCl2, 1.0 millimol/L dithiothreitol, 0.1 millimol/L sodium ortho-vanadate, 0.01% (v/v) Nonidet-P40 (Sigma)] were added and the mixture was incubated for 15 min at 22° C. to allow pre-binding of the test compounds to the enzyme before the start of the kinase reaction. Then the kinase reaction was started by the addition of 3 microL of a solution of adenosine-tri-phosphate (ATP, 3.33 millimol/L=> final conc. in the 5 microL assay volume is 2 millimol/L) and substrate (1.25 micromol/L=> final conc. in the 5 microL assay volume is 0.75 micromol/L) in assay buffer and the resulting mixture was incubated for a reaction time of 25 min at 22° C. The concentration of CDK2/CycE was adjusted depending of the activity of the enzyme lot and was chosen appropriate to have the assay in the linear range, typical concentrations were in the range of 10 ng/ml. The reaction was stopped by the addition of 3 microL of a solution of TR-FRET detection reagents (0.333 micromol/L streptavidine-XL665 [Cisbio Bioassays, Codolet, France] and 1.67 nanomol/L anti-RB(pSer807/pSer8l 1)-antibody from BD Pharmingen [#558389] and 2 nanomol/L LANCE EU-W1024 labeled anti-mouse IgG antibody [Perkin-Elmer, product no. AD0077, as an alternative a Terbium-cryptate-labeled anti-mouse IgG antibody from Cisbio Bioassays can be used]) in an aqueous EDTA-solution (167 millimol/L EDTA, 0.2% (w/v) bovine serum albumin in 100 millimol/L HEPES pH 7.5).
The resulting mixture was incubated 1 h at 22° C. to allow the formation of complex between the phosphorylated biotinylated peptide and the detection reagents. Subsequently the amount of phosphorylated substrate was evaluated by measurement of the resonance energy transfer from the Eu-chelate to the streptavidine-XL. Therefore, the fluorescence emissions at 620 nm and 665 nm after excitation at 350 nm was measured in a TR-FRET reader, e.g. a Pherastar (BMG Labtechnologies, Offenburg, Germany) or a Viewlux (Perkin-Elmer). The ratio of the emissions at 665 nm and at […] was taken as the measure for the amount of phosphorylated substrate. The data were normalised (enzyme reaction without inhibitor=0% inhibition, all other assay components but no enzyme=100% inhibition).

[1] = system: BRCA1 mRNA expression in MDA-MB-231 cells; test: qRT-PCR assay: inhibition of BRCA1 mRNA expression in MDA-MB-231 cells; assay type: cell-based; details: Homo sapiens, 24 h exposure, normalised to GAPDH, read-out: RTqPCR-MDA-MB-231 IC50 [mol/l] BRCA1 (median)
Protocol: Tissue cultured human MDA-MB-231 human breast cancer cells were plated in 500 microL per well at 200,000 cells/well in a 24 well microtiter plate. After 24 h, the cells were exposed continuously for 24 h to test substances (substances were added with Tecan HP D300 Dispenser). RNA was prepared using Qiagen RNeasy MiniKit (#74106), RNA was quantified using a NanoDrop Equipment, and 600 nano gamms of RNA was converted to cDNA using a SuperScript VILO kit (Thermofisher #11755050) followed by qPCR amplification. BRCA1 and ATR gene expression was measured by RT-qPCR and normalised to GAPDH housekeeping gene expression. qPCR primer sets have been purchased from Thermo Fisher Scientific/Applied Biosystems: BRCA1, #Hs 01556193; ATR, #Hs 00992123; GAPDH, #Hs 03929097.

CYCLIN K = CYCLIN K nuclear protein level: immunofluorescence/high content analysis in CAL-120 cells; assay type: cell-based, human; details: 24 h, nuclear CCNK staining, read-out: CYCLIN K degradation IF, DC50-[mol/l] (median)
Protocol: In the context of the present invention, the term “DC50 Cyclin K” refers to the DC50 values obtained according to the assay described in this section (7) herein below, i.e. the DC50 values for the degradation of Cyclin K.
CAL-120 human breast cancer cells (DSMZ ACC 459) are seeded in 1536-well microtiter plates (800 cells per well) containing 50 nanoL of compounds in Dose-Response. Control wells received DMSO or Reference Example 1. Plates are then incubated for 24 h at 37° C. in an humidified incubator and fixed with 4% PFA for 10 min. Then immunofluorescence (IF) against CYCLIN K (ThermoFisher Scientific CCNK Antibody #PA5-85020, rabbit, 1:200 dilution) is performed using standard IF protocols. Cells are then stained with Hoechst 33342 (Life Technologies, H-1399, 0.1 microg/ml) and imaged on an automated confocal microscopy system (e.g. Perkin Elmer Opera Phenix). Nuclear and cytoplasmic intensity as well as the nuclear/cytoplasmic intensity ratio is determined by automated image analysis using custom generated scripts (MetaXpress). Data is then transferred to Genedata Screener software, normalized to DMSO and control and DC50 values (degrading concentration to achieve 50% reduction of nuclear CCNK staining intensity relative to controls) are reported.

IC50 (CDK2/CycE) [nM] | DC50 (CYCLIN K) [nM] | Compound | IC50 [1] [nM]
> 20000 | 0.227 | CN1CCN(c2nc(NCc3nc4cc(F)ccc4[nH]3)c3ncc(Br)n3n2)CC1 [Example 21, 7-bromo-N-[(5-fluoro-1H-benzimidazol-2-yl)methyl]-2-(4-methylpiperazin-1-yl)imidazo[2,1-f][1,2,4]triazin-4-amine] | 3.11
> 20000 | 0.0632 | Fc1ccc2[nH]c(CNc3nc(N4CCNCC4)nn4c(Br)cnc34)nc2c1F [Example 10, 7-bromo-N-[(4,5-difluoro-1H-benzimidazol-2-yl)methyl]-2-(piperazin-1-yl)imidazo[2,1-f][1,2,4]triazin-4-amine] | 0.548
> 20000 | 1.14 | C[C@@H]1CN(c2nc(NCc3nc4ccccc4[nH]3)c3ncc(Br)n3n2)C[C@H](C)O1 [Example 4, N-[(1H-benzimidazol-2-yl)methyl]-7-bromo-2-[rel-(2R,6S)-2,6-dimethylmorpholin-4-yl]imidazo[2,1-f][1,2,4]triazin-4-amine] | 25.9
> 20000 | 3.58 | N#Cc1cnc2c(NCc3nc4ccccc4[nH]3)nc(N3CCOCC3)nn12 [Example 2, 4-{[(1H-benzimidazol-2-yl)methyl]amino}-2-(morpholin-4-yl)imidazo[2,1-f][1,2,4]triazine-7-carbonitrile] | 11.1
> 20000 | 0.267 | C[C@@H]1CN(c2nc(NCc3nc4c(F)c(F)ccc4[nH]3)c3ncc(C(F)(F)F)n3n2)C[C@H](C)N1 [Example 29, N-[(4,5-difluoro-1H-benzimidazol-2-yl)methyl]-2-[rel-(3R,5S)-3,5-dimethylpiperazin-1-yl]-7-(trifluoromethyl)imidazo[2,1-f][1,2,4]triazin-4-amine] | 1.05
> 20000 | 0.0613 | C[C@@H]1CN(c2nc(NCc3nc4ccccc4[nH]3)c3ncc(C(F)(F)F)n3n2)C[C@H](C)N1.O=CO [Example 24, N-[(1H-benzimidazol-2-yl)methyl]-2-[rel-(3R,5S)-3,5-dimethylpiperazin-1-yl]-7-(trifluoromethyl)imidazo[2,1-f][1,2,4]triazin-4-amine Formate (1/1)] | 1.1
1410 | 3.94 | OC[C@@H]1CCCCN1c1nc(NCc2nc3ccccc3[nH]2)c2ncc(Br)n2n1 [Example 17, [(2S)-1-(4-{[(1H-benzimidazol-2-yl)methyl]amino}-7-bromoimidazo[2,1-f][1,2,4]triazin-2-yl)piperidin-2-yl]methanol] | 15.7
4780 |  | CN(CC(C)(C)O)c1nc(NCc2nc3ccccc3[nH]2)c2ncc(C(F)(F)F)n2n1 [Example 30, 1-[{4-[(1H-benzimidazol-2-ylmethyl)amino]-7-(trifluoromethyl)imidazo[2,1-f][1,2,4]triazin-2-yl}(methyl)amino]-2-methylpropan-2-ol] | 7.23
> 20000 | 0.111 | C[C@@H]1CN(c2nc(NCc3nc4ccccc4[nH]3)c3ncc(Br)n3n2)C[C@H](C)N1 [Example 9, N-[(1H-benzimidazol-2-yl)methyl]-7-bromo-2-[rel-(3R,5S)-3,5-dimethylpiperazin-1-yl]imidazo[2,1-f][1,2,4]triazin-4-amine] | 3.52
> 20000 | 0.505 | C[C@@H]1CN(c2nc(NCc3nc4c(F)cccc4[nH]3)c3ncc(Br)n3n2)C[C@H](C)N1 [Example 18, 7-bromo-2-[rel-(3R,5S)-3,5-dimethylpiperazin-1-yl]-N-[(4-fluoro-1H-benzimidazol-2-yl)methyl]imidazo[2,1-f][1,2,4]triazin-4-amine] | 1.98
> 20000 | 0.363 | CN1CCN(c2nc(NCc3nc4c(F)c(F)ccc4[nH]3)c3ncc(C(F)(F)F)n3n2)CC1 [Example 28, N-[(4,5-difluoro-1H-benzimidazol-2-yl)methyl]-2-(4-methylpiperazin-1-yl)-7-(trifluoromethyl)imidazo[2,1-f][1,2,4]triazin-4-amine] | 0.242
> 20000 | 2.31 | CN1CCN(c2nc(NCc3nc4ccccc4[nH]3)c3ncc(Br)n3n2)CC1 [Example 6, N-[(1H-benzimidazol-2-yl)methyl]-7-bromo-2-(4-methylpiperazin-1-yl)imidazo[2,1-f][1,2,4]triazin-4-amine] | 69
> 20000 | 0.0931 | C[C@@H]1CN(c2nc(NCc3nc4cc(F)ccc4[nH]3)c3ncc(Br)n3n2)C[C@H](C)N1 [Example 19, 7-bromo-2-[rel-(3R,5S)-3,5-dimethylpiperazin-1-yl]-N-[(5-fluoro-1H-benzimidazol-2-yl)methyl]imidazo[2,1-f][1,2,4]triazin-4-amine] | 0.886
11700 | 0.876 | Brc1cnc2c(NCc3nc4ccccc4[nH]3)nc(N3CCOCC3)nn12 [Example 1, N-[(1H-benzimidazol-2-yl)methyl]-7-bromo-2-(morpholin-4-yl)imidazo[2,1-f][1,2,4]triazin-4-amine] | 10
5740 | 1.57 | COc1cccc2[nH]c(CNc3nc(N4CCOCC4)nn4c(Br)cnc34)nc12 [Example 13, 7-bromo-N-[(4-methoxy-1H-benzimidazol-2-yl)methyl]-2-(morpholin-4-yl)imidazo[2,1-f][1,2,4]triazin-4-amine] | 8.06
> 20000 | 0.292 | Fc1cccc2[nH]c(CNc3nc(N4CCOCC4)nn4c(Br)cnc34)nc12 [Example 12, 7-bromo-N-[(4-fluoro-1H-benzimidazol-2-yl)methyl]-2-(morpholin-4-yl)imidazo[2,1-f][1,2,4]triazin-4-amine] | 
 | 0.589 | Fc1cccc2[nH]c(CNc3nc(N4CCNCC4)nn4c(Br)cnc34)nc12 [Example 22, 7-bromo-N-[(4-fluoro-1H-benzimidazol-2-yl)methyl]-2-(piperazin-1-yl)imidazo[2,1-f][1,2,4]triazin-4-amine] | 0.884
